Measurements as given in ChEMBL document CHEMBL1141850, “Glucosidation of betulinic acid by Cunninghamella species” (1999).
≈ marks a conversion by molar mass, not a printed value.

Legend:
Type in all cases: functional
Conditions in all cases: read-out: ED50 (the source's name)
[1] = Cytotoxicity against human MEL1 cells
[2] = Cytotoxicity against human MEL2 cells
[3] = Cytotoxicity against human MEL3 cells
[4] = Cytotoxicity against human MEL7 cells

Row | SMILES | EC50 [1] | EC50 [2] | EC50 [3] | EC50 [4]
1 | C=C(C)[C@@H]1CC[C@]2(C(=O)O)CC[C@]3(C)[C@H](CC[C@@H]4[C@@]5(C)CC[C@H](O)C(C)(C)[C@@H]5CC[C@]43C)[C@@H]12 [BETULINIC ACID] | 1.4 µg/mL (≈ 3.07 µM) | 1.2 µg/mL (≈ 2.63 µM) | 1.8 µg/mL (≈ 3.94 µM) | 4.4 µg/mL (≈ 9.63 µM)
2 | C=C(C)[C@@H]1CC[C@]2(C(=O)O[C@@H]3O[C@H](CO)[C@@H](O)[C@H](O)[C@H]3O)CC[C@]3(C)[C@H](CC[C@@H]4[C@@]5(C)CC[C@H](O)C(C)(C)[C@@H]5CC[C@]43C)[C@@H]12 | > 20 µg/mL | > 20 µg/mL | > 20 µg/mL | > 20 µg/mL
